US9708314B2, “Heterocyclic amide compound” (NISSAN CHEMICAL INDUSTRIES, LTD., priority 2013, dated 2017)

Tests used:
Type in all cases: in vivo
[1] = system: Monochoria vaginalis; experiment: Test Example 1: herbicidal activity, application before weed generation in submerged conditions; details: Application herbicide amount 320 g/ha; Seventeenth Table
How it was run: (§1)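 Pre-emergence water-surface application under 4 cm flooding, same day as sowing, with rice transplanted at 2.5 leaf stage. Dose given as g/ha. Plants grown at 25° C. to 30° C. and rated three weeks later on a 0 (≤5%) to 5 (≥90%) herbicidal-ratio scale.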

[2] = system: Scirpus juncoides; experiment: as above; details: Application herbicide amount 320 g/ha; Seventeenth Table
How it was run: as §1

[3] = system: Echinochloa oryzacola Vasing.; experiment: as above; details: Application herbicide amount 320 g/ha; Seventeenth Table
How it was run: as §1

[4] = system: Beta vulgaris ssp. vulgaris; experiment: Test Example 4: effect on crop by application to foliage (diluvial soil, plastic box); details: foliage application, 320 g/ha
How it was run: (§2)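 Seeds sown in sterilized diluvial soil, covered ~1.5 cm, grown 14 days in greenhouse at 25° C. to 30° C. Emulsion formulation diluted in water to set rate (g/ha) and sprayed onto stems and leaves. Effect scored visually 3 weeks later on 0–5 scale (5 = ≥90% herbicidal ratio, 0 = ≤5%).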

[5] = system: directly sowed Oryza sativa; experiment: as above; details: foliage application, 320 g/ha
How it was run: as §2

[6] = system: Glycine max; experiment: as above; details: foliage application, 320 g/ha
How it was run: as §2

[7] = system: Brassica campestris L.; experiment: as above; details: foliage application, 320 g/ha
How it was run: as §2

[8] = system: Zea mays; experiment: as above; details: foliage application, 320 g/ha
How it was run: as §2

[9] = system: Triticum aestivum; experiment: as above; details: foliage application, 320 g/ha
How it was run: as §2

[10] = system: transplanted Oryza sativa; experiment: Test Example 1: effect on crop, application before weed generation in submerged conditions; details: Application herbicide amount 320 g/ha; Seventeenth Table
How it was run: as §1

Cn1nnnc1NC(=O)c1ccc(C(F)(F)F)n2c(CS(C)(=O)=O)nnc12 [2-034]
C: Monochoria vaginalis (herbicidal effect grade) [1]: 4 (Herbicidal ratio of 70% or more and less than 90%)
B: Scirpus juncoides (herbicidal effect grade) [2]: 4 (Herbicidal ratio of 70% or more and less than 90%)
A: Echinochloa oryzicola Vasing. (herbicidal effect grade) [3]: 5 (Herbicidal ratio of 90% or more (almost completely withered))
f (Beta vulgaris ssp. vulgaris) effect on crop grade [4]: 5 (Herbicidal ratio of 90% or more (almost completely withered))
d (directly sowed Oryza sativa) effect on crop grade [5]: 5 (Herbicidal ratio of 90% or more (almost completely withered))
c (Glycine max) effect on crop grade [6]: 3 (Herbicidal ratio of 40% or more and less than 70%)
g (Brassica campestris L.) effect on crop grade [7]: 5 (Herbicidal ratio of 90% or more (almost completely withered))
b (Zea mays) effect on crop grade [8]: 5 (Herbicidal ratio of 90% or more (almost completely withered))
e (Triticum aestivum) effect on crop grade [9]: 5 (Herbicidal ratio of 90% or more (almost completely withered))
a: transplanted Oryza sativa (effect on crop grade) [10]: 4 (Herbicidal ratio of 70% or more and less than 90%)

Cn1nnnc1NC(=O)c1ccc(C(F)(F)F)n2c(C[S+]([O-])CC(F)(F)F)nnc12 (stereo not drawn) [2-035]
C: Monochoria vaginalis (herbicidal effect grade) [1]: 3 (Herbicidal ratio of 40% or more and less than 70%)
B: Scirpus juncoides (herbicidal effect grade) [2]: 3 (Herbicidal ratio of 40% or more and less than 70%)
A: Echinochloa oryzicola Vasing. (herbicidal effect grade) [3]: 4 (Herbicidal ratio of 70% or more and less than 90%)
f (Beta vulgaris ssp. vulgaris) effect on crop grade [4]: 5 (Herbicidal ratio of 90% or more (almost completely withered))
d (directly sowed Oryza sativa) effect on crop grade [5]: 4 (Herbicidal ratio of 70% or more and less than 90%)
c (Glycine max) effect on crop grade [6]: 2 (Herbicidal ratio of 20% or more and less than 40%)
g (Brassica campestris L.) effect on crop grade [7]: 5 (Herbicidal ratio of 90% or more (almost completely withered))
b (Zea mays) effect on crop grade [8]: 5 (Herbicidal ratio of 90% or more (almost completely withered))
e (Triticum aestivum) effect on crop grade [9]: 4 (Herbicidal ratio of 70% or more and less than 90%)
a: transplanted Oryza sativa (effect on crop grade) [10]: 4 (Herbicidal ratio of 70% or more and less than 90%)

Cn1nnnc1NC(=O)c1ccc(C(F)(F)F)n2c(S(C)(=O)=O)nnc12 [2-037]
C: Monochoria vaginalis (herbicidal effect grade) [1]: 5 (Herbicidal ratio of 90% or more (almost completely withered))
B: Scirpus juncoides (herbicidal effect grade) [2]: 5 (Herbicidal ratio of 90% or more (almost completely withered))
A: Echinochloa oryzicola Vasing. (herbicidal effect grade) [3]: 5 (Herbicidal ratio of 90% or more (almost completely withered))
f (Beta vulgaris ssp. vulgaris) effect on crop grade [4]: 5 (Herbicidal ratio of 90% or more (almost completely withered))
d (directly sowed Oryza sativa) effect on crop grade [5]: 4 (Herbicidal ratio of 70% or more and less than 90%)
c (Glycine max) effect on crop grade [6]: 5 (Herbicidal ratio of 90% or more (almost completely withered))
g (Brassica campestris L.) effect on crop grade [7]: 5 (Herbicidal ratio of 90% or more (almost completely withered))
b (Zea mays) effect on crop grade [8]: 5 (Herbicidal ratio of 90% or more (almost completely withered))
e (Triticum aestivum) effect on crop grade [9]: 5 (Herbicidal ratio of 90% or more (almost completely withered))
a: transplanted Oryza sativa (effect on crop grade) [10]: 4 (Herbicidal ratio of 70% or more and less than 90%)

CCS(=O)(=O)c1nnc2c(C(=O)Nc3nnnn3C)ccc(C(F)(F)F)n12 [2-038]
C: Monochoria vaginalis (herbicidal effect grade) [1]: 5 (Herbicidal ratio of 90% or more (almost completely withered))
B: Scirpus juncoides (herbicidal effect grade) [2]: 5 (Herbicidal ratio of 90% or more (almost completely withered))
A: Echinochloa oryzicola Vasing. (herbicidal effect grade) [3]: 5 (Herbicidal ratio of 90% or more (almost completely withered))
f (Beta vulgaris ssp. vulgaris) effect on crop grade [4]: 5 (Herbicidal ratio of 90% or more (almost completely withered))
d (directly sowed Oryza sativa) effect on crop grade [5]: 5 (Herbicidal ratio of 90% or more (almost completely withered))
c (Glycine max) effect on crop grade [6]: 5 (Herbicidal ratio of 90% or more (almost completely withered))
g (Brassica campestris L.) effect on crop grade [7]: 5 (Herbicidal ratio of 90% or more (almost completely withered))
b (Zea mays) effect on crop grade [8]: 5 (Herbicidal ratio of 90% or more (almost completely withered))
e (Triticum aestivum) effect on crop grade [9]: 5 (Herbicidal ratio of 90% or more (almost completely withered))
a: transplanted Oryza sativa (effect on crop grade) [10]: 4 (Herbicidal ratio of 70% or more and less than 90%)

CC(C)c1nnc2c(C(=S)Nc3nnnn3C)ccc(C(F)(F)F)n12 [2-039, 3-Isopropyl-N-(1-methyl-1H-tetrazol-5-yl)-5-(trifluoromethyl)-[1,2,4]triazolo[4,3-a]pyridine-8-carbothioamide]
C: Monochoria vaginalis (herbicidal effect grade) [1]: 5 (Herbicidal ratio of 90% or more (almost completely withered))
B: Scirpus juncoides (herbicidal effect grade) [2]: 5 (Herbicidal ratio of 90% or more (almost completely withered))
A: Echinochloa oryzicola Vasing. (herbicidal effect grade) [3]: 5 (Herbicidal ratio of 90% or more (almost completely withered))
f (Beta vulgaris ssp. vulgaris) effect on crop grade [4]: 5 (Herbicidal ratio of 90% or more (almost completely withered))
d (directly sowed Oryza sativa) effect on crop grade [5]: 4 (Herbicidal ratio of 70% or more and less than 90%)
c (Glycine max) effect on crop grade [6]: 3 (Herbicidal ratio of 40% or more and less than 70%)
g (Brassica campestris L.) effect on crop grade [7]: 5 (Herbicidal ratio of 90% or more (almost completely withered))
b (Zea mays) effect on crop grade [8]: 4 (Herbicidal ratio of 70% or more and less than 90%)
e (Triticum aestivum) effect on crop grade [9]: 3 (Herbicidal ratio of 40% or more and less than 70%)
a: transplanted Oryza sativa (effect on crop grade) [10]: 4 (Herbicidal ratio of 70% or more and less than 90%)

CCOC(=O)Cc1nnc2c(C(=O)Nc3nnnn3C)ccc(C(F)(F)F)n12 [2-040]
C: Monochoria vaginalis (herbicidal effect grade) [1]: 4 (Herbicidal ratio of 70% or more and less than 90%)
B: Scirpus juncoides (herbicidal effect grade) [2]: 4 (Herbicidal ratio of 70% or more and less than 90%)
A: Echinochloa oryzicola Vasing. (herbicidal effect grade) [3]: 4 (Herbicidal ratio of 70% or more and less than 90%)
f (Beta vulgaris ssp. vulgaris) effect on crop grade [4]: 5 (Herbicidal ratio of 90% or more (almost completely withered))
d (directly sowed Oryza sativa) effect on crop grade [5]: 4 (Herbicidal ratio of 70% or more and less than 90%)
c (Glycine max) effect on crop grade [6]: 1 (Herbicidal ratio of 5% or more and less than 20%)
g (Brassica campestris L.) effect on crop grade [7]: 3 (Herbicidal ratio of 40% or more and less than 70%)
b (Zea mays) effect on crop grade [8]: 4 (Herbicidal ratio of 70% or more and less than 90%)
e (Triticum aestivum) effect on crop grade [9]: 2 (Herbicidal ratio of 20% or more and less than 40%)
a: transplanted Oryza sativa (effect on crop grade) [10]: 4 (Herbicidal ratio of 70% or more and less than 90%)

COCCn1nnnc1NC(=O)c1ccc(C(F)(F)F)n2c(C(C)C)nnc12 [2-041]
C: Monochoria vaginalis (herbicidal effect grade) [1]: 4 (Herbicidal ratio of 70% or more and less than 90%)
B: Scirpus juncoides (herbicidal effect grade) [2]: 5 (Herbicidal ratio of 90% or more (almost completely withered))
A: Echinochloa oryzicola Vasing. (herbicidal effect grade) [3]: 5 (Herbicidal ratio of 90% or more (almost completely withered))
f (Beta vulgaris ssp. vulgaris) effect on crop grade [4]: 5 (Herbicidal ratio of 90% or more (almost completely withered))
d (directly sowed Oryza sativa) effect on crop grade [5]: 4 (Herbicidal ratio of 70% or more and less than 90%)
c (Glycine max) effect on crop grade [6]: 0 (Herbicidal ratio of 5% or less (almost no effect))
g (Brassica campestris L.) effect on crop grade [7]: 4 (Herbicidal ratio of 70% or more and less than 90%)
b (Zea mays) effect on crop grade [8]: 2 (Herbicidal ratio of 20% or more and less than 40%)
e (Triticum aestivum) effect on crop grade [9]: 3 (Herbicidal ratio of 40% or more and less than 70%)
a: transplanted Oryza sativa (effect on crop grade) [10]: 0 (Herbicidal ratio of 5% or less (almost no effect))

Cc1ccc(-c2nnc3c(C(=O)Nc4nnnn4C)ccc(C(F)(F)F)n23)cc1 [2-042]
C: Monochoria vaginalis (herbicidal effect grade) [1]: 4 (Herbicidal ratio of 70% or more and less than 90%)
B: Scirpus juncoides (herbicidal effect grade) [2]: 4 (Herbicidal ratio of 70% or more and less than 90%)
A: Echinochloa oryzicola Vasing. (herbicidal effect grade) [3]: 5 (Herbicidal ratio of 90% or more (almost completely withered))
f (Beta vulgaris ssp. vulgaris) effect on crop grade [4]: 4 (Herbicidal ratio of 70% or more and less than 90%)
d (directly sowed Oryza sativa) effect on crop grade [5]: 3 (Herbicidal ratio of 40% or more and less than 70%)
c (Glycine max) effect on crop grade [6]: 0 (Herbicidal ratio of 5% or less (almost no effect))
g (Brassica campestris L.) effect on crop grade [7]: 2 (Herbicidal ratio of 20% or more and less than 40%)
b (Zea mays) effect on crop grade [8]: 4 (Herbicidal ratio of 70% or more and less than 90%)
e (Triticum aestivum) effect on crop grade [9]: 0 (Herbicidal ratio of 5% or less (almost no effect))
a: transplanted Oryza sativa (effect on crop grade) [10]: 5 (Herbicidal ratio of 90% or more (almost completely withered))

Cn1nnnc1NC(=O)c1ccc(C(F)(F)F)n2c(-c3ccc(F)cc3)nnc12 [2-043]
C: Monochoria vaginalis (herbicidal effect grade) [1]: 5 (Herbicidal ratio of 90% or more (almost completely withered))
B: Scirpus juncoides (herbicidal effect grade) [2]: 5 (Herbicidal ratio of 90% or more (almost completely withered))
A: Echinochloa oryzicola Vasing. (herbicidal effect grade) [3]: 5 (Herbicidal ratio of 90% or more (almost completely withered))
f (Beta vulgaris ssp. vulgaris) effect on crop grade [4]: 5 (Herbicidal ratio of 90% or more (almost completely withered))
d (directly sowed Oryza sativa) effect on crop grade [5]: 4 (Herbicidal ratio of 70% or more and less than 90%)
c (Glycine max) effect on crop grade [6]: 1 (Herbicidal ratio of 5% or more and less than 20%)
g (Brassica campestris L.) effect on crop grade [7]: 4 (Herbicidal ratio of 70% or more and less than 90%)
b (Zea mays) effect on crop grade [8]: 3 (Herbicidal ratio of 40% or more and less than 70%)
e (Triticum aestivum) effect on crop grade [9]: 3 (Herbicidal ratio of 40% or more and less than 70%)
a: transplanted Oryza sativa (effect on crop grade) [10]: 4 (Herbicidal ratio of 70% or more and less than 90%)
